Assay results from PMC7932537, “Quantitative profiling of protease specificity” (PLoS Computational Biology, 2021).

Assays:
MMP-9 [1] = experiment: Substrate phage display with NGS: relative probability (RP) of P3-P1' tetramer clusters; type: biochemical, human; conditions: MMP9; RP of the substrate's P3-P1' tetramer, substrate phage display with NGS;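 also: ratio of tetramer probability after protease selection to that in naive phage library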
MMP-2 = molecular target: T1, MMP-2 (Homo sapiens, UniProt P08253); experiment: K(obs) of individual phage substrates (set of 1369); type: biochemical; conditions: MMP2; individual phage substrate from the set of 1369 peptides; hyphen in the sequence marks the cleavage position
T1 sequence (P08253 110-660): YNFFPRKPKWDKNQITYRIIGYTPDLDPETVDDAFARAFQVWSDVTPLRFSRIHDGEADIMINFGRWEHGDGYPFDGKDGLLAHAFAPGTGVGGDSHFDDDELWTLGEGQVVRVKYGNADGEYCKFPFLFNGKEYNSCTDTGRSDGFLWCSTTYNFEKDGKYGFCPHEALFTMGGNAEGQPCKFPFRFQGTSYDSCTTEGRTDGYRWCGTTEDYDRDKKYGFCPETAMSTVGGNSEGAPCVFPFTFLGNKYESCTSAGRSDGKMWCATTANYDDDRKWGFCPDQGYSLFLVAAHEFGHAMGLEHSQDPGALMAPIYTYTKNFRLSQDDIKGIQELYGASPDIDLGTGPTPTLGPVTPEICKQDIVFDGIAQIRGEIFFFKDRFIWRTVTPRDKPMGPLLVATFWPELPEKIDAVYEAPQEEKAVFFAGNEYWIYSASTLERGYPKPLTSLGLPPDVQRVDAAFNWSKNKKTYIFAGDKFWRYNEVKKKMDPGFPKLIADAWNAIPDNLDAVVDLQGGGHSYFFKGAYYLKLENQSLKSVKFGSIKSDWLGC

MMP-9 [2] = molecular target: MMP-9 (Homo sapiens, UniProt P14780); experiment: as above; type: biochemical; conditions: MMP9; individual phage substrate of the set of 1369 peptides; dash in sequence marks cleavage position
Sequence of MMP-9 (Homo sapiens, UniProt P14780) (P14780 94-707): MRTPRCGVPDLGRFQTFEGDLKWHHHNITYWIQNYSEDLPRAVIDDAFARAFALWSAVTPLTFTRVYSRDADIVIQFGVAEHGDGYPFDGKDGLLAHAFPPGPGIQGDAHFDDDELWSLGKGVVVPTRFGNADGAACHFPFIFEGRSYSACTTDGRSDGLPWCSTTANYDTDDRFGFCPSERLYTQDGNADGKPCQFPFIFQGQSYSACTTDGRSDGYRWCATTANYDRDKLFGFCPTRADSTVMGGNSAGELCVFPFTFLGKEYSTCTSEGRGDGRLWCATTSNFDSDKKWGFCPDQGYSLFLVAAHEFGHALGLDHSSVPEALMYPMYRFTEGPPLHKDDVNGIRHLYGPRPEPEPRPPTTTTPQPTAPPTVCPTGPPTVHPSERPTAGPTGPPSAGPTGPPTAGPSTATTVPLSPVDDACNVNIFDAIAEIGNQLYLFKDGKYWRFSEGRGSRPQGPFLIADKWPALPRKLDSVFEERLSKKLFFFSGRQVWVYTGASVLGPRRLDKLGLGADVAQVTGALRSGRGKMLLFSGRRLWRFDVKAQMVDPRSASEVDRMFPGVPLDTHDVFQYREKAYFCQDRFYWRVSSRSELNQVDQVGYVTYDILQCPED

| Substance | relative probability (RP) (MMP-9 [1]) | Kobs (MMP-2) [M⁻¹ s⁻¹] | Kobs (MMP-9 [2]) [M⁻¹ s⁻¹] |
| --- | --- | --- | --- |
| KSISN-WTASG | 0.06259 | 10866.7 | 84.609 |
| KSPRP-YTASG | 47.6856 | 12792.1 | 12792.1 |
| KSPTG-LTASG | 39.8897 | 10866.7 | 8321.48 |
| KVLSA-VTASG | 0.4242 | 12792.1 | 12792.1 |
| KYHAW-MTASG | 0.08727 | 7386.83 | 27.918 |
| LAPRY-WTASG | 27.5973 | 12792.1 | 12792.1 |
| LGPSH-YTASG | 38.4805 | 12792.1 | 12792.1 |
| LIPAW-LTASG | 46.2228 | 12792.1 | 10866.7 |
| LIPTS-LTASG | 31.9505 | 12792.1 | 12792.1 |
| LKVMN-YTASG | 29.3662 | 3637.04 | 12792.1 |
| LPPLG-FTASG | 44.5202 | 12792.1 | 10866.7 |
| LQIGH-LTASG | 14.7862 | 12792.1 | 1870.4 |
| LQLAL-YTASG | 1.077 | 12792.1 | 912.511 |
| LVVRA-HTASG | 18.814 | 4082.43 | 5461.43 |
| MALSS-LTASG | 4.987 | 7015.91 | 0 |
| MFVRK-LTASG | 0 | 10866.7 | 4763.33 |
| MGLAN-LTASG | 11.5381 | 12792.1 | 951.362 |
| MGPWF-MTASG | 35.6409 | 0 | 9740.44 |
| MGPWG-MTASG | 49.8335 | 4335.13 | 12792.1 |
| MPMGR-LTASG | 2.466 | 4082.43 | 113.394 |
| MSLAT-LTASG | 0.7406 | 12792.1 | 0 |
| MSPKG-VTASG | 38.7703 | 12792.1 | 12792.1 |
| MSPRK-FTASG | 2.647 | 12792.1 | 12792.1 |
| MWVLS-LTASG | 27.5596 | 12792.1 | 8941.32 |

| Substance | relative probability (RP) (MMP-9 [1]) | Kobs (MMP-2) [M⁻¹ s⁻¹] | Kobs (MMP-9 [2]) [M⁻¹ s⁻¹] |
| --- | --- | --- | --- |
| NAPNA-LTASG | 41.7392 | 12792.1 | 12792.1 |
| NGPYN-LTASG | 49.1716 | 5461.43 | 12792.1 |
| NIPTR-LTASG | 15.5872 | 12792.1 | 1327.88 |
| NPPSH-LTASG | 43.8368 | 12792.1 | 12792.1 |
| NRPSW-VTASG | 29.0809 | 9740.44 | 12792.1 |
| NSPMS-LTASG | 47.1282 | 12792.1 | 12792.1 |
| NSPSD-LTASG | 38.1321 | 12792.1 | 9740.44 |
| PCPTG-LTASG | 39.8897 | 8321.48 | 3253.29 |
| PKLAA-ITASG | 1.188 | 12792.1 | 0 |
| PKPAR-LTASG | 40.1634 | 12792.1 | 12792.1 |
| PQMGS-LTASG | 3.398 | 12792.1 | 201.585 |
| PSLAE-LTASG | 0.4438 | 8941.32 | 654.784 |
| PSLGQ-LTASG | 2.507 | 12792.1 | 56.119 |
| PTLQY-LTASG | 2.48 | 12792.1 | 585.336 |
| PTPRS-YTASG | 44.546 | 7386.83 | 12792.1 |
| PTWRG-LTASG | 37.3667 | 5269.78 | 12792.1 |
| QMPLQ-ITASG | 44.6329 | 8941.32 | 6131.32 |
| QPPHA-FTASG | 39.4048 | 12792.1 | 12792.1 |
| QRPMD-LTASG | 44.1549 | 12792.1 | 12792.1 |
| QRVAA-VTASG | 0.4709 | 4082.43 | 0 |
| QRVRG-VTASG | 13.8249 | 1327.88 | 619.843 |
| QRWFA-LTASG | 14.7831 | 2038.8 | 6688.74 |
| QVPRR-LTASG | 2.666 | 12792.1 | 10866.7 |
| RAPLP-VTASG | 40.8342 | 12792.1 | 12792.1 |

| Substance | relative probability (RP) (MMP-9 [1]) | Kobs (MMP-2) [M⁻¹ s⁻¹] | Kobs (MMP-9 [2]) [M⁻¹ s⁻¹] |
| --- | --- | --- | --- |
| RAPVA-FTASG | 39.0112 | 12792.1 | 12792.1 |
| RDLGF-LTASG | 3.437 | 12792.1 | 0 |
| RDMSY-LTASG | 0.7522 | 4335.13 | 0 |
| RFPLK-VTASG | 22.8859 | 0 | 3438.54 |
| RGPSS-YTASG | 41.6306 | 12792.1 | 12792.1 |
| RHPSH-FTASG | 26.7767 | 12792.1 | 6688.74 |
| RKLAF-LTASG | 0.6348 | 12792.1 | 726.013 |
| RLPIN-LTASG | 44.8884 | 12792.1 | 12792.1 |
| RLPKL-LTASG | 35.7561 | 1816.46 | 6688.74 |
| RLPYP-LTASG | 48.6636 | 12792.1 | 12792.1 |
| RLVNW-MTASG | 19.0749 | 3850.82 | 2687.73 |
| RMPRQ-VTASG | 25.107 | 1196.62 | 1981.53 |
| RMWRA-FTASG | 17.7749 | 4205.91 | 4922.1 |
| RQPFL-LTASG | 33.1122 | 1154.21 | 12792.1 |
| RQPRN-VTASG | 40.3866 | 6131.32 | 12792.1 |
| RRPSA-LTASG | 47.6113 | 12792.1 | 10866.7 |
| RRPVA-YTASG | 47.2844 | 12792.1 | 12792.1 |
| RTPKG-LTASG | 48.4124 | 12792.1 | 12792.1 |
| RVPVP-MTASG | 46.3561 | 2038.8 | 9740.44 |
| RVVAN-LTASG | 32.1971 | 12792.1 | 4922.1 |
| SCVRM-MTASG | 24.5728 | 1373.05 | 1561.44 |
| SDVRF-LTASG | 26.3541 | 9740.44 | 5889.62 |
| SGALN-FYSTA | 19.1713 | 2761.81 | 8941.32 |
